# Results reported in patent publication US11634412B2, “3-phosphoglycerate dehydrogenase inhibitors and uses thereof” (Raze Therapeutics, Inc., priority 2016, dated 2023).
# Target: T1, Full length (FL) 3-Phosphoglycerate Dehydrogenase (PHGDH) (Homo sapiens, UniProt O43175)
# T1 construct: Full length (FL) 3-Phosphoglycerate Dehydrogenase (PHGDH) Diaphorase coupled assay (500 uM NAD)
# T1 sequence (O43175 1-533): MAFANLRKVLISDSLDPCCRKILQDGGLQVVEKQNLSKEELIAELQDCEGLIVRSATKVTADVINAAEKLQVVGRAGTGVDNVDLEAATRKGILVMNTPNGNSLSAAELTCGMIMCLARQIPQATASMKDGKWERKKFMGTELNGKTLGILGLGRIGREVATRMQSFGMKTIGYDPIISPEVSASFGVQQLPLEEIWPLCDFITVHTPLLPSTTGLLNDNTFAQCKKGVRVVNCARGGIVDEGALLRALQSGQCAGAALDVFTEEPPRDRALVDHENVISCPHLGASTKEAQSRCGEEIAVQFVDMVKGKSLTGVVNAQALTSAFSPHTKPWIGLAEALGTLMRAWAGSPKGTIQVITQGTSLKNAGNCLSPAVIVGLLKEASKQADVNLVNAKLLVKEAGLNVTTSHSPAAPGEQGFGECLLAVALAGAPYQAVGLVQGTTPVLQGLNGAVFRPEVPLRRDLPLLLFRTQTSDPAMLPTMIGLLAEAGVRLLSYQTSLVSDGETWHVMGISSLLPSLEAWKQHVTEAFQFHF
# Test: Full length (FL) PHGDH Diaphorase coupled assay (20 uM NAD)
# Type: biochemical
# Settings: full-length PHGDH 10 nM, 30° C. 60 minutes, resorufin fluorescence
# Method: PHGDH activity was determined by detecting the NADH produced during the reaction. Diaphorase was used to catalyze the oxidation of NADH with the concomitant reduction of resazurin to the fluorescent product resorufin. Resorufin fluorescence quantitatively reflected the production of NADH by the PHGDH reaction. To drive the forward reaction, two enzymes in the serine synthesis pathway subsequent to PHGDH, Phosphoserine aminotransferase (PSAT1) and phosphoserine phosphatase (PSPH) were also added to the reaction.
row,IC50 [µM],SMILES
1,1 to 5,CC(=O)NS(=O)(=O)N1CCC(NC(=O)c2cc3c(Cl)c(Cl)ccc3n2C)(c2ccccc2)C1 (racemic) [I-147 e8]
2,5 to 10,CNC(=O)NS(=O)(=O)N1CCCC(NC(=O)c2cc3c(Cl)c(Cl)ccc3n2C)(c2cccc(CO)c2)C1 (racemic) [I-138 e16]
3,5 to 10,CNC(=O)NS(=O)(=O)N1CCCC(NC(=O)c2cc3c(Cl)c(Cl)ccc3n2C)(c2ccccc2)C1 (racemic) [I-146 e6]
4,0.001 to 1,CN1CCC(NC(=O)c2cc3c(Cl)c(Cl)ccc3n2C)(c2ccc(C(=O)O)cc2)C1 (racemic) [I-130 e17]
5,1 to 5,"Cn1c(C(=O)NC2(c3ccc(C#N)cc3)CCOC2)cc2c(Cl)c(Cl)ccc21 (racemic) [I-134 e143, 4,5-dichloro-N-[3-(4-cyanophenyl)tetrahydrofuran-3-yl]-1-methyl-indole-2-carboxamide]"
6,0.001 to 1,"Cn1c(C(=O)NC2(c3ccc(CC(=O)O)cc3)CCOC2)cc2c(Cl)c(Cl)ccc21 (racemic) [I-129 e149, (±)-2-[4-[3-[(4,5-Dichloro-1-methyl-indole-2-carbonyl)amino]tetrahydrofuran-3-yl]phenyl]acetic acid]"
7,1 to 5,"Cn1c(C(=O)NC2(c3ccc(C(N)=O)cc3)CCOC2)cc2c(Cl)c(Cl)ccc21 (racemic) [I-131 e144, (±)-N-[3-(4-Carbamoylphenyl)tetrahydrofuran-3-yl]-4,5-dichloro-1-methyl-indole-2-carboxamide]"
8,5 to 10,CC(=O)Nc1cccc(C2(NC(=O)c3cc4c(Cl)c(Cl)ccc4n3C)CCN(C(C)=O)CC2)c1 [I-150 e5]
9,5 to 10,CC(=O)NS(=O)(=O)N1CCC(NC(=O)c2cc3c(Cl)c(Cl)ccc3n2C)(c2cccc(C#N)c2)CC1 [I-154 e4]

# Second part, the compound before the results:
row,SMILES,IC50 [µM]
1,Cn1c(C(=O)NC2(c3ccccc3)CCN(S(=O)(=O)Nc3cnccn3)CC2)cc2c(Cl)c(Cl)ccc21 [I-152 e3],1 to 5
2,"Cn1c(C(=O)N[C@@]2(c3ccc(C(=O)O)cc3)CCOC2)cc2c(Cl)c(Cl)ccc21 (single isomer, unassigned; peak 2) [I-132 or I-133 e147 peak 2]",0.001 to 1
3,CNC(=O)NS(=O)(=O)N1CCCC(NC(=O)c2cc3c(Cl)c(Cl)ccc3n2C)(c2cccc(C(=O)O)c2)C1 (racemic) [I-139 e14],1 to 5
4,"Cn1c(C(=O)NC2(c3cccc(C#N)c3)CCOC2)cc2c(Cl)c(Cl)ccc21 (racemic) [I-143 e139, (±)-4,5-dichloro-N-[3-(3-cyanophenyl)tetrahydrofuran-3-yl]-1-methyl-indole-2-carboxamide]",1 to 5
5,CC(=O)NS(=O)(=O)N1CCC(NC(=O)c2cc3c(Cl)c(Cl)ccc3n2C)(c2cccc(N)c2)CC1 [I-145 e13],5 to 10
6,"Cn1c(C(=O)N[C@]2(c3ccc(C(=O)O)cc3)CCOC2)cc2c(Cl)c(Cl)ccc21 (single isomer, unassigned; peak 1) [I-133 or I-132 e146 peak 1]",0.001 to 1
